# Data published in paper PMC3670040, “Structure of Lipid Kinase p110β/p85β Elucidates an Unusual SH2-Domain-Mediated Inhibitory Mechanism” (Molecular Cell, 2011).
# Square brackets hold non-standard residues; d marks the D form. Ends that are not written are not given here. pY = N[C@@H](Cc1ccc(OP(=O)(O)O)cc1)C(=O)O
# System: human p110β
# Test: Transcreener ADP formation, human p110β with icSH2 of human p85α, p85β, p55γ
# Type: biochemical
# Conditions: icSH2 from p85α, p85β or p55γ; 10 μM pY2; Figure 4A
# Protocol: Figure 4 cSH2 Is Important for p110β Inhibition In Vitro and in Cells (A) Kinase activity of human p110β and icSH2 wild-type constructs from three human regulatory subunits (p85α, p85β, and p55γ) in the absence and presence of 10 μM PDGFR pY2 (y axis as in Figure 1B). EC50s for wild-type and icSH2 tyrosine mutants, in the absence and presence of 10 μM PDGF pY2, are shown. (B) Western blots of HEK cells transiently expressing wild-type and mutant human p110β/p85α. The membrane was probed with antibodies against PKB, pPKB (pSer473), myc (p110β), FLAG (p85α), and actin. Bar graphs show mean ± SEM (n = 3) of PKB phosphorylation level normalized to wild-type p110β/p85α (WT). The position of the three mutations is mapped on the p110β/p85β structure. […]
# The lipid kinase activity was determined using the Transcreener ADP2 FP Assay (BellBrook Labs, Madison, WI) according to manufacturer‟s specifications. This non-radioactive assay measures activity by quantitating the amount of ADP formed. The ADP formed by PI3K competes with fluorescent ADP tracer for binding to an anti-ADP antibody, thereby decreasing fluorescence polarization. […]
substance,measurement,value
"ESDGG[pY]MDMSKDESID[pY]VPMLDMKGDIKYADIE [pY2, bis-phosphopeptide (PDGFR 735–767, with pY740 and pY751)]",effect of pY2 on activity of human p110β bound to icSH2,significantly stimulated the activity
